Patent US8242123B2, “Insecticidal methods using 4-amino-5-chloro-thieno[2,3-d]-pyrimidine compounds” (Merial Limited, priority 2006, dated 2012)

How the values were obtained:
Assay type in all cases: in vivo
[1] = tested on: Rice Plant Hopper (Nilaparvata lugens); experiment: Rice plant hopper, sprayed rice seedlings; details: for mortality at 100 ppm: Nilaparvata lugens, after 72 hours, rice seedlings sprayed, 10 adults; for biological activity (0% no activity to 100% total control), Nilaparvata lugens: 300 ppm, comparative test
Procedure: (§1) In the following tests, if not precised otherwise, the formulated solutions of some of the compound examples were diluted to an active ingredient concentration of 300 ppm, and the diluted solutions were applied in the below mentioned tests.
(§2) Rice seedlings were cleaned and washed 24 hours before spraying. The active compounds were formulated in 50:50 acetone:water and 0.1% vol/vol surfactant (EL 620) was added. Potted rice seedlings were sprayed with 5 ml test solution, air dried, placed in cages and inoculated with 10 adults. Treated rice plants were kept at 28-29° C. and relative humidity of 50-60%. Percent mortality was recorded after 72 hours.
(§3) The biological activity in tables B.1 and B.2 was evaluated on scale range from 0% as showing no biological activity to 100% as having total control. The comparative biological tests were conducted as described above.

[2] = tested on: Silverleaf Whitefly (Bemisia argentifolii); experiment: Silverleaf whitefly, cotton cotyledon dip test; details: for mortality at 100 ppm: Bemisia argentifolii, 72 h, 3 days after treatment, adults on cotton cotyledons, read-out: mortality compared to untreated controls (silverleaf whitefly); for biological activity (0% no activity to 100% total control), Bemesia argentifolia: 300 ppm, comparative test
Procedure: as §1
(§4) The active compounds were formulated in 50:50 acetone:water and 100 ppm Kinetic™ surfactant.
Selected cotton plants were grown to the cotyledon state (one plant per pot). The cotyledons were dipped into the test solution to provide complete coverage of the foliage and placed in a well-vented area to dry. Each pot with treated seedling was placed in a plastic cup and 10 to 12 whitefly adults (approximately 3-5 day old) were introduced. The insects were colleted using an aspirator and an 0.6 cm, non-toxic TygonO tubing (R-3603) connected to a barrier pipette tip. The tip, containing the collected insects, was then gently inserted into the soil containing the treated plant, allowing insects to crawl out of the tip to reach the foliage for feeding. The cups were covered with a reusable screened lid (150 micron mesh polyester screen PeCap from Tetko Inc). Test plants were maintained in the holding room at about 25° C. and 20-40% relative humidity for 3 days avoiding direct exposure to the fluorescent light (24 hour photoperiod) to prevent trapping of heat inside the cup. Mortality was assessed 3 days after treatment of the plants.
as §3

[3] = tested on: Colorado Potato Beetle (Leptinotarsa decemlineata); experiment: Colorado potato beetle, potato leaf dip test; details: foliar, 120 h, 5 days after treatment, larvae on dipped potato leaves, read-out: mortality compared to untreated controls (Colorado potato beetle)
Procedure: as §1
Potato plants were utilized for bioassays. Excised plant leaves were dipped into 1:1 acetone/water dilutions of the active compounds. After the leaves had dried, they were individually placed onto water-moistened filter paper on the bottoms of Petri dishes.
Each dish was infested with 5-7 larvae and covered with a lid. Each treatment dilution was replicated 4 times. Test dishes were held at approximately 27° C. and 60% humidity. Numbers of live and morbid larvae were assessed in each dish at 5 days after treatment application, and mortality percentage was calculated.

[4] = tested on: Rice Green Leafhopper (Nephotettix virescens); experiment: Rice green leafhopper, sprayed rice seedlings; details: after 72 hours, 10 adults
Procedure: as §1
as §2, with “acetone:water,” for “acetone:water”

[5] = tested on: Bean Aphid (aphis fabae); experiment: Bean aphid, nasturtium plant dip test; details: 72 h, after 3 days, nasturtium plants dipped
Procedure: as §1, §4
Nasturtium plants grown in Metro mix in the 1st leaf-pair stage (variety ‘Mixed Jewle’) were infested with approximately 2-30 laboratory-reared aphids by placing infested cut plants on top of the test plants. The cut plants were removed after 24 hr. Each plant was dipped into the test solution to provide complete coverage of the foliage, stem, protruding seed surface and surrounding cube surface and allowed to dry in the fume hood. The treated plants were kept at about 25° C. with continuous fluorescent light. Aphid mortality was determined after 3 days.

[6] = tested on: Cowpea Aphid (aphis craccivora); experiment: Cowpea aphid, sprayed potted cowpea plants; details: population reduction recorded after 24, 72 and 120 hours
Procedure: as §1
The active compounds were formulated in 50:50 acetone:water. Potted cowpea plants colonized with 100-150 aphids of various stages were sprayed after the pest population has been recorded. Population reduction was recorded after 24, 72, and 120 hours.

[7] = tested on: Southern Armyworm (spodoptera eridania), 2nd-3rd Instar Larvae; experiment: Southern armyworm, lima bean foliage dip test; details: for biological activity (0% no activity to 100% total control), Spodoptera eridania: 300 ppm, comparative test
Procedure: as §1
The active compounds were formulated as a 10.000 ppm solution in a mixture of 35% acetone and water, which was diluted with water, if needed.
Sieva lima bean foliage, expanded to the first true leaves, were dipped and agitated in the test solution for 3 seconds and then allowed to dry in a fume hood. The treated plant was then placed in 25-cm plastic perforated zip enclosure bags, ten 2nd-instar larvae were added, and the bags sealed. After 4 days, observations were made of mortality, plant feeding, and of any interference with larval growth.
as §3

[8] = tested on: Cotton Aphid (aphis gossypii), Mixed Life Stages; experiment: Cotton aphid, mixed life stages, infested cotyledon dip test; details: 300 ppm; comparative test
Procedure: as §1
The active compounds were formulated in 50:50 acteone/water and 100 ppm Kinetic™ surfactant
Cotton plants at the cotyledon stage were infested prior to treatment by placing a heavily infested leaf from the main aphid colony on top of each cotyledon. The aphids were allowed to transfer overnight and the host leaf was removed. The infested cotyledons were then dipped and agitated in the test solution for 3 seconds and allowed to dry in a fume hood. Test plants were maintained under fluorescent lighting in a 24-hr photoperiod at 25° C. and 20-40% relative humidity. Aphid mortality on the treated plants, relative to mortality on untreated check plants, was determined after 5 days.
as §3

[9] = tested on: Green Peach Aphid (Myzus persicae), Mixed Life Stages; experiment: Green peach aphid, mixed life stages, bell pepper leaf dip test; details: 300 ppm; comparative test
Procedure: as §1
Bell pepper plants at the first true-leaf stage were infested prior to treatment by placing heavily infested leaves from the main aphid colony on top of the treatment plants. The aphids were allowed to transfer overnight to accomplish an infestation of 30-40 aphids per plant and the host leaves were removed. The infested leaves of the test plants were then dipped and agitated in the test solution for 3 seconds and allowed to dry in a fume hood. Test plants were maintained under fluorescent lighting in a 24-hr photoperiod at 25° C. and 20-40% relative humidity. Aphid mortality on the treated plants, relative to mortality on untreated check plants, was determined after 5 days.
as §3

With `CC(Nc1ncnc2scc(Cl)c12)c1ccc(OC(F)(F)F)cc1` (centres unmarked) [Compound 2, (5-Chloro-thieno[2,3-d]pyrimidin-4-yl)-[1-(4-trifluoromethoxy-phenyl)-ethyl]-amine] the mortality at 100 ppm [1] was no less than 90%, the mortality at 100 ppm [2] was no less than 90% and the mortality at 100 ppm [3] was no less than 90%. The mortality at 100 ppm [4] was no less than 60%, the mortality at 100 ppm [5] was no less than 60% and the mortality at 100 ppm [6] was no less than 75%.

With `FC(F)(F)Oc1ccc(CCNc2ncnc3scc(Cl)c23)cc1` [Compound 5, (5-Chloro-thieno[2,3-d]pyrimidin-4-yl)-[2-(4-trifluoromethoxy-phenyl)-ethyl]-amine] the mortality at 100 ppm [1] was no less than 90%, the mortality at 100 ppm ([7]; Spodoptera eridania, foliar, 96 h, 100 ppm, after 4 days, lima bean foliage dipped, read-out: mortality in comparison with untreated controls (southern armyworm)) was no less than 60% and the mortality at 100 ppm [2] was no less than 90%. It also gave a mortality at 100 ppm [3] of no less than 90%, a mortality at 100 ppm [4] of no less than 60% and a mortality at 100 ppm [6] of no less than 75%.

`CC(C)(C)[C@H]1CC[C@@H](Nc2ncnc3scc(Cl)c23)CC1` [Compound 6, cis-(4-tert-Butyl-cyclohexyl)-(5-chloro-thieno[2,3-d]pyrimidin-4-yl)-amine] was tested, and the mortality at 100 ppm [1] was no less than 90%, the mortality at 100 ppm [2] was no less than 90% and the mortality at 100 ppm [3] was no less than 90%. It also gave a mortality at 100 ppm [4] of no less than 60%, a mortality at 100 ppm [5] of no less than 60% and a mortality at 100 ppm [6] of no less than 75%.

For `CC(C)(C)[C@H]1CC[C@@H](Nc2ncnc3scc(Cl)c23)CC1` [drawing 15], the “biological activity (0% no activity to 100% total control), Aphis gossypii” value [8] was 100%, the “biological activity (0% no activity to 100% total control), Myzus persicae” value [9] was 100% and the “biological activity (0% no activity to 100% total control), Nilaparvata lugens” value [1] was 100%. The “biological activity (0% no activity to 100% total control), Spodoptera eridania” value [7] was 100% and the “biological activity (0% no activity to 100% total control), Bemesia argentifolia” value [2] was 100%.

In the case of `[H][C@H]1CC[C@H](Nc2ncnc3scc(Cl)c23)CC1` [reference compound], the “biological activity (0% no activity to 100% total control), Aphis gossypii” value [8] is reported as 75%, the “biological activity (0% no activity to 100% total control), Myzus persicae” value [9] is reported as 50% and the “biological activity (0% no activity to 100% total control), Nilaparvata lugens” value [1] is reported as 0%. The “biological activity (0% no activity to 100% total control), Spodoptera eridania” value [7] was 0% and the “biological activity (0% no activity to 100% total control), Bemesia argentifolia” value [2] was 0%.

For `C[C@H](Nc1ncnc2scc(Cl)c12)c1ccccc1` [reference compound], the “biological activity (0% no activity to 100% total control), Aphis gossypii” value [8] was 100%, the “biological activity (0% no activity to 100% total control), Myzus persicae” value [9] was 100% and the “biological activity (0% no activity to 100% total control), Nilaparvata lugens” value [1] was 0%. For the same molecule, the “biological activity (0% no activity to 100% total control), Bemesia argentifolia” value [2] was 0%.
